This note sets out measurements from patent publication US11324832B2, “Tripartite modulators of endosomal G protein-coupled receptors” (Endosome Therapeutics, Inc., priority 2015, dated 2022).

Data set [1] can be described thus: Stability in the spinal cord after intrathecal injection to mice. Type of data set: in vivo, mouse. Particulars: 10 μM, 5 μl, spinal cord after 3 hours. The protocol: To assess stability in cerebrospinal fluid, spantide or Compound 1 (10 μg/ml) was incubated in human cerebrospinal fluid (0-4 h, 37° C.), and then snap frozen. Proteins were precipitated using ACN. To assess stability in the spinal cord, spantide or Compound 1 was injected intrathecally to mice (10 μM, 5 μl, L3/L4). After 3 hours, a spinal cord segment 5 mm on either side the injection site was removed and snap frozen. Tissues were crushed with a glass rod in a mixture of methanol (30 μl) and EDTA/KF (60 μl, 0.1 M EDTA, 4 g/l KF), vortexed and centrifuged to remove lipids. Peptides were extracted from the pellet with 0.5% formic acid in 75% ACN/H2O (100 μl). Samples were analyzed assayed by LC/MS using a Waters Xevo TQ or TQD triple quadrupole mass spectrometer coupled to a Waters UPLC. Peptides were separated by HPLC (Supelco Ascentis Express Peptide ES C18 column, 50×2.1 mm, 2.7 μm) with 0.05% formic acid in H2O and ACN as solvents. Peptides were quantified by comparison to calibration standards (50-50,000 ng/ml).

Data set [2] deals with T1, β2-adrenergic receptor (Homo sapiens, UniProt P07550).
T1 construct: endogenous in cells; host or cells: HEK293
Put plainly: FRET nuclear ERK biosensor, isoprenaline-induced activation in HEK293 cells. Type of data set: cell-based. Particulars: selectivity control, endogenous receptor. Here is the method:
(§1) HEK293 cells were transfected with 55 ng/well rat NK1R with N-terminal HA. 11 epitope tag (HA-NK1R) or CLR plus RAMP1 and 40 ng/well FRET biosensors. FRET was assessed 48 h after transfection, following serum restriction (0.5% FBS overnight). For experiments using clathrin or dynamin siRNA, cells were transfected with 55 ng/well rat HA-NK1R, 40 ng/well FRET biosensor and 25 nM/well scrambled, clathrin or dynamin ON-TARGETplus SMARTpool siRNA (GE Dharmacon). FRET was assessed 72 h after transfection, following serum restriction (0.5% FBS overnight). Cells were equilibrated in HBSS at 37° C. and FRET was analyzed using a GE Healthcare INCell 2000 Analyzer. For GFP/RFP emission ratio analysis, cells were sequentially excited using a FITC filter (490/20) with emission measured using dsRed (605/52) and FITC (525/36) filters, and a polychroic optimized for the FITC/dsRed filter pair (Quad4). For CFP/YFP emission ratio analysis, cells were sequentially excited using a CFP filter (430/24) with emission measured using YFP (535/30) and CFP (470/24) filters, and a polychroic optimized for the CFP/YFP filter pair (Quad3). Cells were imaged every 1 min, allowing image capture of 14 wells per minute. Baseline emission ratio images were captured for 4 min. […] Data were analyzed as described and expressed as emission ratios relative to baseline for each cell (F/F0). […]

The target in data set [3] is T2, NK1R (Rattus norvegicus, UniProt P14600). Put plainly: SP-stimulated Ca2+ signaling in HEK-NK1R cells, antagonist mode. The settings on record: SP 3 nM (EC80), HEK-NK1R cells, 30 min pre-incubation; read-out: pIC50, antagonism of SP-stimulated Ca^2+ signaling (converted). Further details: Full length and truncated 6312 rat HA-NK1R have been described; expressed in transfected cells; host or cells: HEK293 (transient). Type of data set: cell-based. The protocol:
[Ca^2+]i was measured as described (Jensen, D. D. et al., J Biol Chem, 2014, 289, 20283-20294). HEK293 cells transiently expressing HA-NK1R or HA-CLR/Myc-RAMP1 were loaded with Fura2-AM (2 μM).

Data set [4] has as its target T3, CLR plus RAMP1 (Homo sapiens, UniProt O60894+Q16602).
T3 construct: expressed in transfected cells; host or cells: HEK293 (transient)
Put plainly: FRET ERK biosensors in HEK293 cells expressing CLR plus RAMP1. Type of data set: cell-based. Particulars: endocytic inhibitor plus CGRP. The protocol: as §1

Data set [5] deals with T2, NK1R. In words: NK1R endocytosis in rat spinal cord slices. Particulars: Dy4 30 μM; SP 1 μM, 5 min. The data set is classed as cell-based.
Data set [6] has as its system NK1R. In words: NK1R endocytosis in neurons of mouse dorsal horn. The data set is classed as in vivo. The settings on record: intrathecal.
Data set [7] has as its system capsaicin-evoked mechanical hyperalgesia in mice. The settings on record: mouse, in vivo.
Experimental: To evaluate the importance of NK1R, clathrin and dynamin, mice (C57BL/6, male, 6-10 weeks) were injected intrathecally (L3/L4) with vehicle, NK1R antagonist SR140,333, Dy4, Dy4 inact, PS2 or PS2 inact. After 30 min, intraplantar injections of vehicle or capsaicin were made into the left hindpaw. Mechanical hyperalgesia was measured by stimulation of the plantar surface of the left and right paws with von Frey filaments, and inflammatory edema was assessed by measuring left paw thickness with calipers.
Mice were acclimatized to the experimental apparatus and environment for 1-2 h on 2 successive days before experiments. Mechanical hyperalgesia was assessed by paw withdrawal to stimulation of the plantar surface of the hind-paw with graded von Frey filaments. On the day before the study, von Frey scores were measured in triplicate to establish a baseline for each animal. To assess edema of the paw, hindpaw thickness was measured using digital calipers before and after treatments. […] Capsaicin (5 μg), Complete Freund's Adjuvant (CFA, 2 mg/ml), or vehicle (capsaicin, 20% ethanol, 10% Tween 80, 70% saline; CFA, saline) was injected subcutaneously into the plantar surface of the left hindpaw (10 μl). von Frey scores (left and right paws) and paw thickness (left paw) were measured for 30-240 min after capsaicin, and 36-40 h after injection of CFA. […]

Where a SMILES comes first, the peptide text is derived from it. [ ]: non-standard residue; d: D form. The star is where a group is joined. X1 = CC(C)CCC[C@@H](C)[C@H]1CC[C@H]2[C@@H]3CC[C@H]4C[C@@H](O*)CC[C@]4(C)[C@H]3CC[C@]12C; PEG4 = NCCOCCOCCOCCOCCC(=O)O; PEG3 = NCCOCCOCCOCCC(=O)O

T3 sequence (Q16602 23-461): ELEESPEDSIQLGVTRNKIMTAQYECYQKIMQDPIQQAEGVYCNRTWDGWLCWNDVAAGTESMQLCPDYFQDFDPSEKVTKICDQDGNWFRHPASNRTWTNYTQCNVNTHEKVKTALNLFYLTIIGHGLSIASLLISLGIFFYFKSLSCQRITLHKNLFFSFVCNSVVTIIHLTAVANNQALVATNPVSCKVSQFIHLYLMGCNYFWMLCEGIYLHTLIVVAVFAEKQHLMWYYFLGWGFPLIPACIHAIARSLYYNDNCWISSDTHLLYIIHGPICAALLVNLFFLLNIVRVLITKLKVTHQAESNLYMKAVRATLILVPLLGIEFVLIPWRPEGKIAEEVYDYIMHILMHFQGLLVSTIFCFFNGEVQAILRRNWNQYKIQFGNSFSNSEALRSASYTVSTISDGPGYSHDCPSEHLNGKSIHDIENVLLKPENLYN
T3 sequence (O60894 27-148): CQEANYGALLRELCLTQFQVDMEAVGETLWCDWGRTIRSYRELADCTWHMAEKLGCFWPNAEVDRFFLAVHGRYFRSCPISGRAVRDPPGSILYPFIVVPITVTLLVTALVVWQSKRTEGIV
T2 sequence (P14600 whole entry, the tested form may be a part): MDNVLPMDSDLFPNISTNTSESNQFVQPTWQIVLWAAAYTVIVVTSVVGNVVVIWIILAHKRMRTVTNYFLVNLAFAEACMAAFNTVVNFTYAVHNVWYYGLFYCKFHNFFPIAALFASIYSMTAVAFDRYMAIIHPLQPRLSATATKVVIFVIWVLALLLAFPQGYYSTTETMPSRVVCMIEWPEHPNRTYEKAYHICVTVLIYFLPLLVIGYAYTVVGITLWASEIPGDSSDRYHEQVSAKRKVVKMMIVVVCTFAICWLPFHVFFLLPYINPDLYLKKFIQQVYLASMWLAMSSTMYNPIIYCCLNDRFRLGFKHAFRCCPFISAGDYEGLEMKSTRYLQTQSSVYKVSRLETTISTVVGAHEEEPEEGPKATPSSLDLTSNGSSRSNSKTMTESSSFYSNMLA
T1 sequence (P07550 whole entry): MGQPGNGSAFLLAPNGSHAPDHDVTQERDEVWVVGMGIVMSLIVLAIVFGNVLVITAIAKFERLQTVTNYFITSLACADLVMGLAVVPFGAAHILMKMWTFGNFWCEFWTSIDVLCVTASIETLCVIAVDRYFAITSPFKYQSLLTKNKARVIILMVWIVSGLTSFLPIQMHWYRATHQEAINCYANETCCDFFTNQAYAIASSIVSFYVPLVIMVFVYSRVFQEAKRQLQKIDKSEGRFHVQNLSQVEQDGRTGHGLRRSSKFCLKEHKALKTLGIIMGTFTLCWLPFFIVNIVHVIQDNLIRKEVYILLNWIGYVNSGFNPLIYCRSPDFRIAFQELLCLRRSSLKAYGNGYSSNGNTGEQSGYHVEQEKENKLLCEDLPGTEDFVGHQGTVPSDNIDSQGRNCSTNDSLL

In the case of `CC(=O)N[C@@H](CC(=O)O[C@H]1CC[C@@]2(C)[C@@H](CC[C@@H]3[C@@H]2CC[C@]2(C)[C@@H]([C@H](C)CCCC(C)C)CC[C@@H]32)C1)C(=O)NCCOCCOCCOCCOCCC(=O)NCCOCCOCCOCCC(=O)NCCOCCOCCOCCOCCC(=O)N[C@H](CCCNC(=N)N)C(=O)N1CCC[C@H]1C(=O)N[C@@H](CCCCN)C(=O)N1CCC[C@H]1C(=O)N[C@@H](CCC(N)=O)C(=O)N[C@@H](CCC(N)=O)C(=O)N[C@H](Cc1c[nH]c2ccccc12)C(=O)N[C@@H](Cc1ccccc1)C(=O)N[C@H](Cc1c[nH]c2ccccc12)C(=O)N[C@@H](CC(C)C)C(=O)N[C@@H](CC(C)C)C(N)=O` [Compound 1] (Ac-D(X1)[PEG4][PEG3][PEG4][dR]PKPQQ[dW]F[dW]LL-NH2), the “stability after intrathecal injection to mice” value in data set [1] is on record as “stable”. Further, the “effect on isoprenaline-induced activation of nuclear ERK” value in data set [2] was “did not affect”. The IC50 in data set [3] was 3.63 nM.

Consider `O=C(N/N=C/c1cc(O)c(O)cc1O)c1cc2ccccc2cc1O` [Dy4], for which, in data set [4], the “effect on CGRP activation of cytosolic ERK” value was “prevented activation of nuclear but not cytosolic ERK” and the “effect on CGRP activation of nuclear ERK” value is reported as “prevented activation of nuclear but not cytosolic ERK”. The “effect on SP-stimulated NK1R endocytosis in spinal cord slices” value in data set [5] is recorded as “prevented”. Besides, the “effect on capsaicin-, formalin- and CFA-evoked NK1R endocytosis in mouse dorsal horn neurons” value in data set [6] is reported as “inhibited”. The “effect on paw withdrawal responses of the uninjected right hind paw” value in data set [7] was “did not affect”.
